# Experimental data from patent US8088930B2, “Benzimidazole derivatives” (Hoffmann-La Roche Inc., priority 2008, dated 2012).
# pIC50: −log10 of the molar value.
# Target: T1, FXR ligand binding domain (GST-FXR LBD fusion protein, human FXR aa 193-473) (Homo sapiens, UniProt Q96RI1)
# T1 construct: fused on or other part: Glutathione-S-transferase (GST) fused N-terminally to the FXR LBD, used to capture the protein on glutathione SPA beads
# T1 sequence (Q96RI1 211-486 limits assumed): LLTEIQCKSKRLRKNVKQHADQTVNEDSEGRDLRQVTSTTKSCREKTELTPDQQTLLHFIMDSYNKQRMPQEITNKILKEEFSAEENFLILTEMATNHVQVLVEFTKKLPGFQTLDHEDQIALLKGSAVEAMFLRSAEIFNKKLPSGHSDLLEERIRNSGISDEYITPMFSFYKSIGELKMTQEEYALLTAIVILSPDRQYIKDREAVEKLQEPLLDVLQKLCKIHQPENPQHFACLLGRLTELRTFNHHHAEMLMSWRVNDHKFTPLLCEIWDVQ
# Experiment: Radioligand binding assay (scintillation proximity, radioligand displacement)
# Settings: 40 nM GST-FXR LBD on SPA beads, test compound 6×10^−9 M to 2.5×10^−5 M, read-out: h-IC50 Binding
# Description: The following tests were carried out in order to determine the activity of the compounds of formula (I).
# To accomplish this, the portions of the sequences encoding the FXR LBD were amplified by polymerase chain reaction (PCR) from a full-length clone by PCR and then subcloned into the plasmid vectors. The final clone was verified by DNA sequence analysis.
# The induction, expression, and subsequent purification of GST-LBD fusion protein was performed in E. coli strain BL21(pLysS) cells by standard methods (Current Protocols in Molecular Biology, Wiley Press, ed. Ausubel et al.).
# Radioligand Binding Assay
# Binding of test substances to the FXR ligand binding domain was assessed in a radioligand displacement assay. The assay was performed in a buffer consisting of 50 mM Hepes, pH 7.4, 10 mM NaCl, 5 mM MgCl2, 0.01% CHAPS. For each reaction well in a 96-well plate, 40 nM of GST-FXR LBD fusion protein was bound to 10 μg glutathione yttrium silicate SPA beads (Pharmacia Amersham) in a final volume of 50 μl by shaking. A radioligand (e.g., 20 nM of 2,N-dicyclohexyl-2-[2-(2,4 dimethoxy-phenyl)-benzoimidazol-1-yl]-acetamide) and test compounds were added, and scintillation proximity counting was performed. All binding assays were performed in 96-well plates and the amount of bound ligand was measured on a Packard TopCount using OptiPlates (Packard).
row,pIC50,SMILES
1,7.30,"COc1ccc(-c2nc3cc(F)c(F)cc3n2C(COc2c(F)cc(C(=O)O)cc2F)C2CCCCC2)c(OC)n1 (single isomer, unassigned; (+)) [Example 97, (+)-4-{2-Cyclohexyl-2-[2-(2,6-dimethoxy-pyridin-3-yl)-5,6-difluoro-benzoimidazol-1-yl]-ethoxy}-3,5-difluoro-benzoic acid]"
2,7.70,"COc1ccc(-c2nc3cc(F)c(F)cc3n2C(COc2c(C)cc(-c3nnn[nH]3)cc2C)C2CCCCC2)c(OC)n1 (single isomer, unassigned; (+)) [Example 100, (+)-1-{1-Cyclohexyl-2-[2,6-dimethyl-4-(1H-tetrazol-5-yl)-phenoxy]-ethyl}-2-(2,6-dimethoxy-pyridin-3-yl)-5,6-difluoro-1H-benzoimidazole]"
3,7.00,"O=C(O)c1cc(F)c(OCC(C2CCCCC2)n2c(-c3ccc(Cl)cc3)nc3ccccc32)c(F)c1 (single isomer, unassigned; (+)) [Example 103, (+)-4-{2-[2-(4-Chloro-phenyl)-benzoimidazol-1-yl]-2-cyclohexyl-ethoxy}-3,5-difluoro-benzoic acid]"
4,8.00,"Cc1cc(C(=O)O)cc(C)c1OCC(C1CCCCC1)n1c(-c2ccc(Cl)cc2)nc2ccccc21 (single isomer, unassigned; (+)) [Example 107, (+)-4-{2-[2-(4-Chloro-phenyl)-benzoimidazol-1-yl]-2-cyclohexyl-ethoxy}-3,5-dimethyl-benzoic acid]"
5,7.22,"O=C(O)c1cc(F)c(OCC(C2CCCCC2)n2c(-c3ccc(Cl)cc3)nc3ccccc32)c(Cl)c1 (single isomer, unassigned; (+)) [Example 110, (+)-3-Chloro-4-{2-[2-(4-chloro-phenyl)-benzoimidazol-1-yl]-2-cyclohexyl-ethoxy}-5-fluoro-benzoic acid]"
6,8.70,"Cc1cc(-c2nnn[nH]2)cc(C)c1OCC(C1CCCCC1)n1c(-c2ccc(Cl)cc2)nc2ccccc21 (single isomer, unassigned; (+)) [Example 113, (+)-2-(4-Chloro-phenyl)-1-{1-cyclohexyl-2-[2,6-dimethyl-4-(1H-tetrazol-5-yl)-phenoxy]-ethyl}-1H-benzoimidazole]"
7,8.70,"CC(C)(Oc1c(F)cc(C(=O)O)cc1F)C(C1CCCCC1)n1c(-c2ccc(Cl)cc2)nc2cc(F)c(F)cc21 (single isomer, unassigned; (+)) [Example 116, (+)-4-{2-[2-(4-Chloro-phenyl)-5,6-difluoro-benzoimidazol-1-yl]-2-cyclohexyl-1,1-dimethyl-ethoxy}-3,5-difluoro-benzoic acid]"
8,6.51,"O=C(O)C1(Oc2ccc(OCC(C3CCCCC3)n3c(-c4ccc(Cl)cc4)nc4cc(F)c(F)cc43)cc2)CCC1 (single isomer, unassigned; (+)) [Example 118, (+)-1-(4-{2-[2-(4-Chloro-phenyl)-5,6-difluoro-benzoimidazol-1-yl]-2-cyclohexyl-ethoxy}-phenoxy)-cyclobutanecarboxylic acid]"
9,6.74,"O=C(O)C1(Oc2ccc(OCC(C3CCCCC3)n3c(-c4ccc(Cl)cc4)nc4cc(F)c(F)cc43)cc2)CC1 (single isomer, unassigned; (+)) [Example 122, (+)-1-(4-{2-[2-(4-Chloro-phenyl)-5,6-difluoro-benzoimidazol-1-yl]-2-cyclohexyl-ethoxy}-phenoxy)-cyclopropanecarboxylic acid]"
10,7.52,"Cc1cc(Cl)ccc1-c1nc2cc(F)c(F)cc2n1C(COc1c(F)cc(C(=O)O)cc1F)C1CCCCC1 (single isomer, unassigned; (+)) [Example 126, (+)-4-{2-[2-(4-Chloro-2-methyl-phenyl)-5,6-difluoro-benzoimidazol-1-yl]-2-cyclohexyl-ethoxy}-3,5-difluoro-benzoic acid]"
11,8.00,"O=C(O)c1cc(F)c(OCC(C2CCCCCC2)n2c(-c3ccc(Cl)cc3)nc3cc(F)c(F)cc32)c(F)c1 (single isomer, unassigned; (+)) [Example 133, (+)-4-{2-[2-(4-Chloro-phenyl)-5,6-difluoro-benzoimidazol-1-yl]-2-cycloheptyl-ethoxy}-3,5-difluoro-benzoic acid]"
12,6.70,"O=C(O)c1ccc(CCC(C2CCCCC2)n2c(-c3ccccc3)nc3cc(F)c(F)cc32)cc1 (single isomer, unassigned; (+)) [Example 144, (+)-4-[3-Cyclohexyl-3-(5,6-difluoro-2-phenyl-benzoimidazol-1-yl)-propyl]-benzoic acid]"
13,9.40,"COc1ccc(-c2nc3cc(F)c(F)cc3n2C(CCc2ccc(C(=O)O)cc2)C2CCCCC2)c(OC)n1 (single isomer, unassigned; (+)) [Example 147, (+)-4-{3-Cyclohexyl-3-[2-(2,6-dimethoxy-pyridin-3-yl)-5,6-difluoro-benzoimidazol-1-yl]-propyl}-benzoic acid]"
14,7.22,"Fc1cc2nc(-c3ccc(Cl)cc3)n(C(COCC3CCCCC3)C3CCCCC3)c2cc1F (single isomer, unassigned; (-)) [Example 2, (−)-2-(4-Chloro-phenyl)-1-(1-cyclohexyl-2-cyclohexylmethoxy-ethyl)-5,6-difluoro-1H-benzoimidazole]"
15,7.30,"Cc1cc(C(=O)O)ccc1OCC(C1CCCCC1)n1c(-c2ccc(Cl)cc2)nc2cc(F)c(F)cc21 (single isomer, unassigned; (-)) [Example 12, (−)-4-{2-[2-(4-Chloro-phenyl)-5,6-difluoro-benzoimidazol-1-yl]-2-cyclohexyl-ethoxy}-3-methyl-benzoic acid]"
16,6.22,"O=C(O)c1ccc(OCC(C2CCCCC2)n2c(-c3ccc(Cl)cc3)nc3cc(F)c(F)cc32)nc1 (single isomer, unassigned; (-)) [Example 21, (−)-6-{2-[2-(4-Chloro-phenyl)-5,6-difluoro-benzoimidazol-1-yl]-2-cyclohexyl-ethoxy}-nicotinic acid]"
17,7.70,"O=C(O)c1cnc(OCC(C2CCCCC2)n2c(-c3ccc(Cl)cc3)nc3cc(F)c(F)cc32)c(Cl)c1 (single isomer, unassigned; (-)) [Example 24, (−)-5-Chloro-6-{2-[2-(4-chloro-phenyl)-5,6-difluoro-benzoimidazol-1-yl]-2-cyclohexyl-ethoxy}-nicotinic acid]"
18,7.40,"O=C(O)c1cnc(OCC(C2CCCCC2)n2c(-c3ccc(Cl)cc3)nc3cc(F)c(F)cc32)c2ccsc12 (single isomer, unassigned; (-)) [Example 28, (−)-4-{2-[2-(4-Chloro-phenyl)-5,6-difluoro-benzoimidazol-1-yl]-2-cyclohexyl-ethoxy}-thieno[3,2-c]pyridine-7-carboxylic acid]"
19,7.15,"O=C(O)c1ccc(OCC(C2CCCCC2)n2c(-c3ccc(Cl)cc3)nc3cc(F)c(F)cc32)c(C(F)(F)F)c1 (single isomer, unassigned; (-)) [Example 41, (−)-4-{2-[2-(4-Chloro-phenyl)-5,6-difluoro-benzoimidazol-1-yl]-2-cyclohexyl-ethoxy}-3-trifluoromethyl-benzoic acid]"
20,6.40,"O=C(O)c1c(F)cc(OCC(C2CCCCC2)n2c(-c3ccc(Cl)cc3)nc3cc(F)c(F)cc32)cc1F (single isomer, unassigned; (-)) [Example 44, (−)-4-{2-[2-(4-Chloro-phenyl)-5,6-difluoro-benzoimidazol-1-yl]-2-cyclohexyl-ethoxy}-2,6-difluoro-benzoic acid]"
21,6.40,"CC(C)(Oc1ccc(OCC(C2CCCCC2)n2c(-c3ccc(Cl)cc3)nc3cc(F)c(F)cc32)nc1)C(=O)O (single isomer, unassigned; (-)) [Example 49, (−)-2-(6-{2-[2-(4-Chloro-phenyl)-5,6-difluoro-benzoimidazol-1-yl]-2-cyclohexyl-ethoxy}-pyridin-3-yloxy)-2-methyl-propionic acid]"

row,SMILES,pIC50
1,"O=C(O)c1ccc(OCC(C2CCCCC2)n2c(-c3ccc(Cl)cc3)nc3cc(F)c(F)cc32)cc1 (single isomer, unassigned; (-)) [Example 6, (−)-4-{2-[2-(4-Chloro-phenyl)-5,6-difluoro-benzoimidazol-1-yl]-2-cyclohexyl-ethoxy}-benzoic acid]",7.05

# Same assay, conditions: h-IC50 Binding, 40 nM GST-FXR LBD on SPA beads, test compound 6×10^−9 M to 2.5×10^−5 M
row,SMILES,pIC50
1,"O=C(O)c1ccc(OCC(C2CCCCC2)n2c(-c3ccc(Cl)cc3)nc3cc(F)c(F)cc32)c(F)c1 (single isomer, unassigned; (-)) [Example 8, (−)-4-{2-[2-(4-Chloro-phenyl)-5,6-difluoro-benzoimidazol-1-yl]-2-cyclohexyl-ethoxy}-3-fluoro-benzoic acid]",7.70
